Test results reported in US20260217732A1, “WRN INHIBITOR” (SUZHOU PUHE BIOPHARMA CO., LTD., priority 2022, published 2026).
Where two headings read alike, the source gives them in different places.

What was measured:
[1] = system: HT-29 colorectal cancer cells; experiment: 2D antiproliferation on MSS HT-29 cells, CTG, 5 days; format: cell-based; details: Homo sapiens, 120 h, HT-29 MSS
Procedure: The molecules of the invention were tested for their anti-proliferative activities on MSS tumor cells.
HT-29 colorectal cancer cells with MSS were cultured in a McCoy's 5A medium containing 10% FBS and 1% penicillin-streptomycin in a 37° C., 5% CO2 constant temperature incubator. 40 μL of cell suspension was added to each well of a 384-well microplate. […] of compounds with different concentrations were added to each well using Echo. The mixtures were cultured in a 37° C., 5% CO2 constant temperature incubator for 5 days. 40 μL of CTG solution (Promega, Cat No. G7573) was added to each well, and the mixture was incubated in a 37° C., 5% CO2 constant temperature incubator for 30 minutes in the dark. The luminescence value was read using an Envision multi-function microplate reader (Perkin Elmer, catalog number Envision 2104). The optical signal is proportional to the amount of ATP in the system, while the ATP content directly characterizes the number of viable cells in the system.

WRN enzyme = target: T1, WRN enzyme (Homo sapiens, UniProt Q14191); experiment: WRN helicase hydrolysis (unwinding) of double-stranded DNA, fluorescence assay; format: biochemical; details: 30 min pre-incubation, 60 min reaction
T1 construct: 10 μL (2×) of WRN enzyme solution was added
T1 sequence (Q14191 whole entry): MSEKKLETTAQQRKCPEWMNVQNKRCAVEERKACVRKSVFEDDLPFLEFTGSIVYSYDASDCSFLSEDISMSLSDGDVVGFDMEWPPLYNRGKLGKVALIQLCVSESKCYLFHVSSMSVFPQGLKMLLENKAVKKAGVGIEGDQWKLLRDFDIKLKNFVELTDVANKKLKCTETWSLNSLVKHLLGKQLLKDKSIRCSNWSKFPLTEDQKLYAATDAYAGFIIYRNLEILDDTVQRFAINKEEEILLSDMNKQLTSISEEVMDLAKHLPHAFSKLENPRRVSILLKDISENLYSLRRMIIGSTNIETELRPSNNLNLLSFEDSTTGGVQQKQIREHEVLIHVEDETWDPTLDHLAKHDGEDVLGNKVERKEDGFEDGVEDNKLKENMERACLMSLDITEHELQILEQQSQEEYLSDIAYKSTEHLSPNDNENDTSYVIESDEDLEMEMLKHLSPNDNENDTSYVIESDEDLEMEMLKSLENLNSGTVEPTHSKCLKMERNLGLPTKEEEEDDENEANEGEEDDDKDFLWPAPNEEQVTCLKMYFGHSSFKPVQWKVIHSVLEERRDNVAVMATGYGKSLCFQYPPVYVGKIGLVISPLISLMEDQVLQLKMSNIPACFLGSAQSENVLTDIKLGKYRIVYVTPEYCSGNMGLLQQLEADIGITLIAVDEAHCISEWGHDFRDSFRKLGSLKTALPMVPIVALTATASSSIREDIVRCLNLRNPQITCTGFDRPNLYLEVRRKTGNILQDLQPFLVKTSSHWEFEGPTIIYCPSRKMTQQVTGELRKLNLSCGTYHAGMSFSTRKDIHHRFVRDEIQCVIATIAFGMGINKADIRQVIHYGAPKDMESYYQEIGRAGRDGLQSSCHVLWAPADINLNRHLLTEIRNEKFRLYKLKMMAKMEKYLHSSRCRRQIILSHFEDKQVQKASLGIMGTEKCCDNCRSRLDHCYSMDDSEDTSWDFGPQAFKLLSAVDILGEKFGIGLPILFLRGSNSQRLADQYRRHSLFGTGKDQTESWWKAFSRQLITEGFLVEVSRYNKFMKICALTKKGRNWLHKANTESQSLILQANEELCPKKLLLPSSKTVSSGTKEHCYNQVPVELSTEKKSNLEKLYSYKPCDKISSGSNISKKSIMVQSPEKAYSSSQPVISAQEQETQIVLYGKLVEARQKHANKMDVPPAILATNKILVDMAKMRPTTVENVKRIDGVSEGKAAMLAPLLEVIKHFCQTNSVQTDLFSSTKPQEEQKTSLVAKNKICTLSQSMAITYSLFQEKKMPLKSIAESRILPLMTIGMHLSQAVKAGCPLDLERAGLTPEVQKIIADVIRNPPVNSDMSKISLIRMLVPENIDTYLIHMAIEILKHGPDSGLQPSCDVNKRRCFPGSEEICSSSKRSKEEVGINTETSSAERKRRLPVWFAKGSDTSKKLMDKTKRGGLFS
Procedure: • The molecules of the present disclosure were tested for their activities on the WRN helicase hydrolysis of double-stranded DNA (Table 1).
A working solution to be tested and a buffer were prepared. The compound to be tested was dissolved in DMSO and subjected to 4× dilution (with 10 μM final concentration as the starting concentration). 0.2 μL of the solution of the compound to be tested was added to the 384-well plate and 10 μL (2×) of WRN enzyme solution was added. The solution was incubated in the dark for 30 minutes. Then, 10 μL of a substrate detection solution containing double-stranded DNA was added to initiate the reaction (the DNA has a length of 19 bp, and labeled with TAMRA and BHQ2 at 3′ and 5′-ends, respectively). The solution was incubated at room temperature for 60 minutes. The inhibitory activities (IC50) against WRN enzyme were calculated based on the change of Ex530/Em590 in the blank group (DMSO) and the compound group.

[2] = system: SW48 (MSI-H) colorectal cancer tumor cells; experiment: In vivo efficacy, SW48 xenograft in nude mice; parameters: species or system BALB/c nude mice; details: QD, oral; for TGI: 21 days; for Tumor Volume D 1: day 1; for Tumor volume D 21: day 21
Procedure: In vivo efficacy experiment in BALB/C nude mice. Details are as follows:
SW48 (MSI-H) colorectal cancer tumor cells were cultured (in an L15 medium with 10% fetal bovine serum), and inoculated into 6-8 week old female BALB/c nude mice (with body weight of about 20 g). All the mice were inoculated subcutaneously. The mice were raised in an SPF-grade experimental environment, and all the mice were free to take commercially certified standard diets. When the tumors grew to an average volume of about 160 mm^3 in mice, the test compound was orally administered daily. […] The tumor volume was measured with a two-dimensional caliper three times a week, and the animals were weighed every day. […] The volume calculation formula is: V=1/2a*b^2, where a represents the long diameter of the tumor and b represents the short diameter of the tumor.

[3] = system: SW48 colorectal cancer cells; experiment: 2D antiproliferation on MSI-H SW48 cells, CTG, 5 days; format: cell-based; details: for IC50 / inhibition at 38.15 pM / inhibition at 0.000152588 µM / inhibition at 0.000610352 µM / inhibition at 0.00244141 µM / inhibition at 0.00976562 µM / inhibition at 0.0390625 µM / inhibition at 0.15625 µM / inhibition at 0.625 µM / inhibition at […] / inhibition at 10 µM: Homo sapiens; for IC50: 120 h, SW48 MSI-H, 5 days; for inhibition at 38.15 pM: SW48, 0.038146973 nM; for inhibition at 0.000152588 µM: SW48, 0.152587891 nM; for inhibition at 0.000610352 µM: SW48, 0.610351563 nM; for inhibition at 0.00244141 µM: SW48, 2.44140625 nM; for inhibition at 0.00976562 µM: SW48, 9.765625 nM; for inhibition at 0.0390625 µM: SW48, 39.0625 nM; for inhibition at 0.15625 µM: SW48, 156.25 nM; for inhibition at 0.625 µM: SW48, 625 nM; for inhibition at […]: SW48, 2500 nM; for inhibition at 10 µM: SW48, 10000 nM
Procedure: The molecules of the present disclosure were tested for their anti-proliferative activity on MSI-H tumor cells.
SW48 colorectal cancer cells with MSI were cultured in a RMI1640 medium containing 10% FBS and 1% penicillin-streptomycin, and the mixture was cultured in a 37° C., 5% CO2 incubator. 40 μL of cell suspension was added to each well of a 384-well microplate. […] of compounds with different concentrations were added to each well using Echo, and the mixtures were cultured in a 37° C., 5% CO2 incubator for 5 days. 40 μL of CTG solution (Promega, Cat No. G7573) was added to each well and incubated in a 37° C., 5% CO2 incubator in the dark for 30 minutes. The luminescence value was read using an Envision multi-function microplate reader (Perkin Elmer, catalog number Envision 2104). The optical signal is proportional to the amount of ATP in the system, while the ATP content directly characterizes the number of viable cells in the system.

in vivo = details: female, CD1, mouse
Procedure: (§1) Mouse Pharmacokinetic Evaluation Experiment
(§2) CD1 female mice were used as test animals to be administered orally/intravenously (with oral dosage of 10 mg/kg or intravenous dosage of 2 mg/kg).
(§3) Experimental scheme: The oral administration group comprised 3 mice per group (Solvent: 10% Hβ-CD-pH7.4), and the intravenous group comprised 3 mice per group. […] The blood concentration in the plasma of mice was determined using the LC/MS/MS method after the oral or intravenous administration, respectively, and the collected data were calculated using the AB Sciex QTRAP 6500 software.

[4] = female, CD1, mouse, in vivo
Procedure: as §1, §2, §3

[5] = read-out: Average Value/Inhibition Rate
[6] = read-out: Test 1/Inhibition Rate
[7] = read-out: Test 2/Inhibition Rate

Row | SMILES | IC50 [1] [nM] | IC50 (WRN enzyme) [nM] | IC50 [3] [nM] | inhibition at 38.15 pM [3, 5] [%] | inhibition at 38.15 pM [3, 6] [%] | inhibition at 38.15 pM [3, 7] [%] | inhibition at 0.000152588 µM [3, 5] [%] | inhibition at 0.000152588 µM [3, 6] [%] | inhibition at 0.000152588 µM [3, 7] [%] | inhibition at 0.000610352 µM [3, 5] [%] | inhibition at 0.000610352 µM [3, 6] [%] | inhibition at 0.000610352 µM [3, 7] [%] | inhibition at 0.00244141 µM [3, 5] [%] | inhibition at 0.00244141 µM [3, 6] [%] | inhibition at 0.00244141 µM [3, 7] [%] | inhibition at 0.00976562 µM [3, 5] [%] | inhibition at 0.00976562 µM [3, 6] [%] | inhibition at 0.00976562 µM [3, 7] [%] | inhibition at 0.0390625 µM [3, 5] [%] | inhibition at 0.0390625 µM [3, 6] [%] | other results
1 | CCc1c(N2CCN(C(=O)c3ncnc(C)c3O)CC2)c(=O)n2nc(-c3cc4c(s3)COC4)nc2n1CC(=O)Nc1ccc(Br)cc1Cl [P24] | > 10000 | 1.1 | 39 | -4.41 | -3.47 | -5.36 | -3.37 | -6.51 | -0.227 | -6.66 | -6.64 | -6.68 | -5.26 | -4.87 | -5.64 | -8.31 | -8.85 | -7.77 | 43.7 | 40.3 | TGI ([2]; 50 mg/kg): 105%; Tumor Volume D 1 ([2]; 50 mg/kg): 161 mm^3; Tumor volume D 21 ([2]; 50 mg/kg): 72 mm^3; inhibition at 0.0390625 µM [3, 7]: 47.1%; inhibition at 0.15625 µM [3, 5]: 98.7%; inhibition at 0.15625 µM [3, 6]: 98.6%; inhibition at 0.15625 µM [3, 7]: 98.8%; inhibition at 0.625 µM [3, 5]: 97.4%; inhibition at 0.625 µM [3, 6]: 97.6%; inhibition at 0.625 µM [3, 7]: 97.2%; inhibition at […] [3, 5]: 97.6%; inhibition at […] [3, 6]: 96.9%; inhibition at […] [3, 7]: 98.3%; inhibition at 10 µM [3, 5]: 97.3%; inhibition at 10 µM [3, 6]: 97.4%; inhibition at 10 µM [3, 7]: 97.3%
2 | CCc1c(N2CCN(C(=O)c3ncnc(C)c3O)CC2)c(=O)n2nc(-c3cc4c(s3)COC4)nc2n1CC(=O)Nc1ccc(C(F)(F)F)cc1C [P29] | > 10000 | 2.1 | 32 | 18.3 | 18 | 18.6 | 25.6 | 26.1 | 25.1 | 14.7 | 19.4 | 9.96 | 19.8 | 12.8 | 26.8 | 21.2 | 17.4 | 25.1 | 70.9 | 70.9 | TGI ([2]; 120 mg/kg): 105%; Tumor Volume D 1 ([2]; 120 mg/kg): 174 mm^3; Tumor volume D 21 ([2]; 120 mg/kg): 36 mm^3; inhibitory activity on SW48 cells ([3]; 39 nM): high inhibitory activity; inhibition at 0.0390625 µM [3, 7]: 70.9%; inhibition at 0.15625 µM [3, 5]: 97.3%; inhibition at 0.15625 µM [3, 6]: 96.5%; inhibition at 0.15625 µM [3, 7]: 98.1%; inhibition at 0.625 µM [3, 5]: 99.4%; inhibition at 0.625 µM [3, 6]: 99.1%; inhibition at 0.625 µM [3, 7]: 99.6%; inhibition at […] [3, 5]: 99%; inhibition at […] [3, 6]: 99.1%; inhibition at […] [3, 7]: 99%; inhibition at 10 µM [3, 5]: 99.8%; inhibition at 10 µM [3, 6]: 100%; inhibition at 10 µM [3, 7]: 99.6%
3 | CCc1c(N2CCN(C(=O)c3ncnc(C)c3O)CC2)c(=O)n2nc(-c3cc4c(s3)COC4)nc2n1CC(=O)Nc1ccc(C(F)(F)F)c2ccoc12 [P57] | > 10000 | 1.3 | 34 | – | – | – | – | – | – | – | – | – | – | – | – | – | – | – | – | – | AUC(0-t) (in vivo; iv, 2 mg/kg): 3150 ng·h/mL; C0 (in vivo; iv, 2 mg/kg): 2920 ng/mL; clearance (in vivo; iv, 2 mg/kg): 10.5 mL/min/kg; half-life (in vivo; iv, 2 mg/kg): 1.2 h; AUC(0-t) (in vivo; po, 10 mg/kg): 8930 ng·h/mL; Cmax (in vivo; po, 10 mg/kg): 4260 ng/mL; Tmax (in vivo; po, 10 mg/kg): 0.5 h; half-life (in vivo; po, 10 mg/kg): 1.4 h; F [4]: 57%
